Patent US11319376B2, “Combination of glucagon receptor antagonists and PI3K pathway inhibitors for the treatment of cancer” (REMD Biotherapeutics, Inc., priority 2016, dated 2022)

Assays:
[1] = test system: C57BL/6 mice; experiment: Effect of REMD2.59c pretreatment on induction of hyperglycemia by PI3K/Akt pathway inhibitors in C57BL/6 fed mice; type: in vivo, mouse; conditions: fed blood glucose, −24 h pretreatment ASN vehicle or REMD2.59c 7 mg/kg i.p., mean ± sd, n=3; for 2 h Glucose: 2 h after single p.o. dose (BYL719 50, BKM120 50, GDC-0980 10, MK2206 150, GSK690693 30, GDC-0068 10 or 100, OSI-906 100 mg/kg); for 4 h Glucose: 4 h after single p.o. dose (same doses as 2 h)
[2] = test system: BALB/c athymic nude mice; experiment: Glucose and insulin response to MK2206 with/without REMD2.59c pretreatment in BALB/c athymic nude mice (MiaPaCa2 tumor bearing or naive); type: in vivo, mouse; conditions: for −0.5 h Glucose: 0.5 h before MK2206 dosing
[3] = test system: cancer patient of diverse malignancies; conditions: cancer patients; cited from earlier work
[4] = target: VPS34 (Homo sapiens, UniProt Q8NEB9); conditions: read-out: Target Selectivity (IC50) VPS34; cited from earlier work
VPS34, sequence (Q8NEB9 whole entry): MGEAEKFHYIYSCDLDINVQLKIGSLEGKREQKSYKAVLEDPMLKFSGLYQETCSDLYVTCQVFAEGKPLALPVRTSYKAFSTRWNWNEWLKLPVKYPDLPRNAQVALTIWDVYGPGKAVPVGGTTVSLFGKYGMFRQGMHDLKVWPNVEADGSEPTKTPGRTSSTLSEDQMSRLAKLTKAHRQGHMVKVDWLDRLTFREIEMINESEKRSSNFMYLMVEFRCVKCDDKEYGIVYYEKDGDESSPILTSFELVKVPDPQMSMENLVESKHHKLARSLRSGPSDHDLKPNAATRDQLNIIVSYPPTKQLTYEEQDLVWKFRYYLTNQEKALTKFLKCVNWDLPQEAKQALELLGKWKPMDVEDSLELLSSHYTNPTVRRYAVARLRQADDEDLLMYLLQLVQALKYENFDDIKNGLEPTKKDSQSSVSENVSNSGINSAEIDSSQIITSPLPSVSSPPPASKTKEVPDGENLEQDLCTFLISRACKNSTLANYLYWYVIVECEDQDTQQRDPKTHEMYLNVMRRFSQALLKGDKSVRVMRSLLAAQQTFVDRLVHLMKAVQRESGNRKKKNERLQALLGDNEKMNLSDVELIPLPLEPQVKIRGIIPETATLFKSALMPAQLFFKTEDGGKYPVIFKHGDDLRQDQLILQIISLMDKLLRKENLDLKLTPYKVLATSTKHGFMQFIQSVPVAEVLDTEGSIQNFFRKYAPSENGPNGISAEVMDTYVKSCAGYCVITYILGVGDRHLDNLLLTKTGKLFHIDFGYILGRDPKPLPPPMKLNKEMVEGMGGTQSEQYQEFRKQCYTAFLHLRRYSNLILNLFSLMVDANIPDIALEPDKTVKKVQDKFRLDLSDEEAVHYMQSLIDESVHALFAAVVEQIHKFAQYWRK

[5] = target: mTOR (Homo sapiens, UniProt P42345); conditions: read-out: Target Selectivity (IC50) mTOR; cited from earlier work
[6] = target: ATR (Homo sapiens, UniProt Q13535); conditions: read-out: Target Selectivity (IC50) ATR; cited from earlier work
ATR, sequence (Q13535 whole entry): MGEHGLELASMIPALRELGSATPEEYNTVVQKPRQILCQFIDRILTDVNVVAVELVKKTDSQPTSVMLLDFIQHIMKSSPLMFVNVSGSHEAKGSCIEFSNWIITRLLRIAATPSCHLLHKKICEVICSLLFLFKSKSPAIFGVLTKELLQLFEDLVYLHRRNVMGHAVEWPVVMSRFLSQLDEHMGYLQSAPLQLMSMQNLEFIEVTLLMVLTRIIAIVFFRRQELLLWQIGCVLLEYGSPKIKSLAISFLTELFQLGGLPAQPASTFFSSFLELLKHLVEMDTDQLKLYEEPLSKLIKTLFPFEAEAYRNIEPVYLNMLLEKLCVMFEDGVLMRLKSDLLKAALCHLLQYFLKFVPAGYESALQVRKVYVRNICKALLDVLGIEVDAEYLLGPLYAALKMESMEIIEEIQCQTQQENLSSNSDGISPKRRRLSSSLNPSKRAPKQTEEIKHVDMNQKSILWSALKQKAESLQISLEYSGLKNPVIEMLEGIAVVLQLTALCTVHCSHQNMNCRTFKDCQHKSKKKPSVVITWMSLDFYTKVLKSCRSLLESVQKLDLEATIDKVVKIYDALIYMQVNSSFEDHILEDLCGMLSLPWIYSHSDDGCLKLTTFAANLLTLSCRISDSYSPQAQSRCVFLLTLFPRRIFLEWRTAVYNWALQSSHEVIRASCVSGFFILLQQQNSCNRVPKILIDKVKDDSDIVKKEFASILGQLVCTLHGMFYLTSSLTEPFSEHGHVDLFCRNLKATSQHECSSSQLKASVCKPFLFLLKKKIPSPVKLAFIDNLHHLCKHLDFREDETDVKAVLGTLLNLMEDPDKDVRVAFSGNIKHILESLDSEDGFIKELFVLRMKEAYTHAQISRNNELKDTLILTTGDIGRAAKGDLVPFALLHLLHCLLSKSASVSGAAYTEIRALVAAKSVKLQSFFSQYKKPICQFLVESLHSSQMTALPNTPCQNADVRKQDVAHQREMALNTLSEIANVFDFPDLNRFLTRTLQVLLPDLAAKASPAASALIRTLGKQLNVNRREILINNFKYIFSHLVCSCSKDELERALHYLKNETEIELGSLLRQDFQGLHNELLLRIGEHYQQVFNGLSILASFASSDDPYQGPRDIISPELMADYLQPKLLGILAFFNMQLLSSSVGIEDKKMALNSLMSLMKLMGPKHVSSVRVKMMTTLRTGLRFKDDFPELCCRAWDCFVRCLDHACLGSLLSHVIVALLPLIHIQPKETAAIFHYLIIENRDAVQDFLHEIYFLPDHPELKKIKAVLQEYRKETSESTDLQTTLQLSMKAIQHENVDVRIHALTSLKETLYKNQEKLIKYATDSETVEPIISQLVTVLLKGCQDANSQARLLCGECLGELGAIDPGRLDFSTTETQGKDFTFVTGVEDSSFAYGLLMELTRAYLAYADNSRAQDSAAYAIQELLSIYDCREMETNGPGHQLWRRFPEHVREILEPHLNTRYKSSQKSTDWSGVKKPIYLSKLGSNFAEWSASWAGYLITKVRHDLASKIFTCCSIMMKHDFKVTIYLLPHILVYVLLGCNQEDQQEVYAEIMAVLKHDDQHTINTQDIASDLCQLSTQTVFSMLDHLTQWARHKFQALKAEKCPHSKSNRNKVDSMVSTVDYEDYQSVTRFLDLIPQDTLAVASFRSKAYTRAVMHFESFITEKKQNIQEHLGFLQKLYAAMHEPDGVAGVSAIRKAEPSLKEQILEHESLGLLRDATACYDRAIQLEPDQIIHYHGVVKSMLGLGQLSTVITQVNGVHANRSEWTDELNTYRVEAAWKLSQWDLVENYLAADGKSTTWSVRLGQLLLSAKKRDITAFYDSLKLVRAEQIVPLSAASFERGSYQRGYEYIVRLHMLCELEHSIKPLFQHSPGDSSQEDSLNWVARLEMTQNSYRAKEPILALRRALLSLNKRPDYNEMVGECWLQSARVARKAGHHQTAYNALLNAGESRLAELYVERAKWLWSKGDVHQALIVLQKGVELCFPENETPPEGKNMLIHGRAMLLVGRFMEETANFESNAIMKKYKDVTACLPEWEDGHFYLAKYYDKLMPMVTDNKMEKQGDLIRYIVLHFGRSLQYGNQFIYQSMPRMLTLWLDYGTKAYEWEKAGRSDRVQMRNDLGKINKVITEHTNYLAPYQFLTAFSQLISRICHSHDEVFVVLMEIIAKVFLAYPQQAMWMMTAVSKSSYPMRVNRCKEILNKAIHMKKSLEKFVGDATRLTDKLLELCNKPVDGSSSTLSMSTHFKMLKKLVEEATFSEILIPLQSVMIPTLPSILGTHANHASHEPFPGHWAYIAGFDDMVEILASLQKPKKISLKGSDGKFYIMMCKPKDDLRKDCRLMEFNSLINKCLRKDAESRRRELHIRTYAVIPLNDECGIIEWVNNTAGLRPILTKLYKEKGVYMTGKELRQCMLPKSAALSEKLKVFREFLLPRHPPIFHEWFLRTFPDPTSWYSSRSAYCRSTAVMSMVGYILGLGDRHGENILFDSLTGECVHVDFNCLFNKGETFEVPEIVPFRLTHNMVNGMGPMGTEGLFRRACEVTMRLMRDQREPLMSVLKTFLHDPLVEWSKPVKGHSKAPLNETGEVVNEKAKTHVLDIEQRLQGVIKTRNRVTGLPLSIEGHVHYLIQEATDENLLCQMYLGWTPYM
ATR, sequence (Q8WXE1 whole entry partner): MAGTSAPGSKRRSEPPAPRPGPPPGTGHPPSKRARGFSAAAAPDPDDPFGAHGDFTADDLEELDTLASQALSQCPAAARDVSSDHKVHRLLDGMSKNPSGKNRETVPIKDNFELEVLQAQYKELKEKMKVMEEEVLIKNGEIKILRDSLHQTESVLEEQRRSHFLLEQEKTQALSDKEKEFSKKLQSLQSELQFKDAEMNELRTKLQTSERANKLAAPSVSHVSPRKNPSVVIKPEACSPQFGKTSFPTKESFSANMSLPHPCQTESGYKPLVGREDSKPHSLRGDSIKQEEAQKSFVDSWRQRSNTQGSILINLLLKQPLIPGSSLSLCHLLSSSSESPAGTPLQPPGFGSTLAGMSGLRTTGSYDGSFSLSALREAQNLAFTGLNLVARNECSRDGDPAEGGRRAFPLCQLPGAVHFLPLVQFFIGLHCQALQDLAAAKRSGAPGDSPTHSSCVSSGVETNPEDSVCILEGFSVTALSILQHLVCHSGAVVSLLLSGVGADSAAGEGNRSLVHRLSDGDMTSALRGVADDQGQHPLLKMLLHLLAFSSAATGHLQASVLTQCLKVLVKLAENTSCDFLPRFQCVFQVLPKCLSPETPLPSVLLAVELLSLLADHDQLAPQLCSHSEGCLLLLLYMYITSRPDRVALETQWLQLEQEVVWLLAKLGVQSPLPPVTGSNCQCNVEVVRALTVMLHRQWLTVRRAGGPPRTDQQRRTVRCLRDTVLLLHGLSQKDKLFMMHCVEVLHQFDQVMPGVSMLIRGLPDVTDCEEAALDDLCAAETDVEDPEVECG

[7] = target: DNAPK (Homo sapiens, UniProt P78527); conditions: read-out: Target Selectivity (IC50) DNAPK; cited from earlier work
[8] = target: PI4Kβ (Homo sapiens, UniProt Q9UBF8); conditions: read-out: Target Selectivity (IC50) PI4Kβ; cited from earlier work
PI4Kβ, sequence (Q9UBF8 whole entry, species assumed): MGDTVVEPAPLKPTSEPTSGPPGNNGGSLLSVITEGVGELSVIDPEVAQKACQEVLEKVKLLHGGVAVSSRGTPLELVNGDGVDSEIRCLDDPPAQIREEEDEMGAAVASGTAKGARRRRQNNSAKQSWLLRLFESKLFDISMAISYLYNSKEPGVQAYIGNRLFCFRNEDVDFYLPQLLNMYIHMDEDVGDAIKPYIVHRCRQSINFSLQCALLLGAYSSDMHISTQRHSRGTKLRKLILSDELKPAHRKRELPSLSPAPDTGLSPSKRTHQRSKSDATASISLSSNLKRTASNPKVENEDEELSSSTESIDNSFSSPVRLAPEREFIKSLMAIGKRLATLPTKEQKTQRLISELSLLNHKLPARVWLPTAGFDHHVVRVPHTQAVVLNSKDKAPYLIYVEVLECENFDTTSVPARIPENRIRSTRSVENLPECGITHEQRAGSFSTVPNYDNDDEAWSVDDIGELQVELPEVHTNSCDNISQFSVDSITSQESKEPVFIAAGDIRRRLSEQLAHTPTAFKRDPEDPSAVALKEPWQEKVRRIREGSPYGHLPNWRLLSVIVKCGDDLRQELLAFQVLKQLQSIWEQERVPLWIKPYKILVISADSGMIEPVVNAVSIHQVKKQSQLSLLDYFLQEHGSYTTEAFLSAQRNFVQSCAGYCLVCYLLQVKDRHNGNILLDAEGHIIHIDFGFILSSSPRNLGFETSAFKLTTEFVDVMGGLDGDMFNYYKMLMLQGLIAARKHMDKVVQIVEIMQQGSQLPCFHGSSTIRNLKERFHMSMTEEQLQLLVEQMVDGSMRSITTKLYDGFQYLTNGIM

[9] = test system: patients with type 1 diabetes; conditions: single dose 70 mg subcutaneous; cited from earlier work
[10] = target: p70S6K (Homo sapiens, UniProt P23443); conditions: read-out: Target Selectivity (IC50) p70S6K; cited from earlier work
[11] = test system: CD-17 scid mice; conditions: cited from earlier work; for effect on GSK690693-induced hyperglycemia: CD-17 scid mice
[12] = target: CSF1R (Homo sapiens, UniProt P07333); conditions: read-out: Target Selectivity (IC50) CSF1R; cited from earlier work

Q: With `C[C@]1(O)C[C@@H](c2nc(-c3ccc4ccc(-c5ccccc5)nc4c3)c3c(N)nccn32)C1` [OSI-906, linsitinib] as the compound, how does the “2 h Glucose” value [1] read?
A: 29.3 ± 1.7 mM

Q: And the “4 h Glucose” value [1]?
A: 23.4 ± 1.5 mM

Q: Which results are given for `NC1(c2ccc(-c3nc4ccn5c(=O)[nH]nc5c4cc3-c3ccccc3)cc2)CCC1` [MK2206]?
A: glucose levels after 2 h treatment ([2]; BALB/c nude mice, MK2206 150 mg/kg p.o.): not increased; increase in serum insulin after 2 h treatment ([2]; BALB/c nude tumor bearing mice, MK2206 150 mg/kg p.o., statistically significant): 65.5 fold; 4 h Insulin ([2]; Table 4 (glucose table), MiaPaCa2 tumor bearing BALB/c nude mice, 4 h after MK2206 150 mg/kg p.o.): 4.9 ± 0.8 ng/mL; 4 h Insulin ([2]; Table 4 (glucose table), naive (tumor-free) BALB/c nude mice, 4 h after MK2206 150 mg/kg): 5.7 ± 1.0 ng/mL; −0.5 h Glucose ([2]; Table 4, MiaPaCa2 tumor bearing BALB/c nude mice, 24 h after ASN or REMD2.59c, mean ± sd, n=3): 5.6 ± 0.8 mM; 2 h Glucose ([2]; Table 4, MiaPaCa2 tumor bearing BALB/c nude mice, 2 h after MK2206 150 mg/kg p.o.): 5.5 ± 1.0 mM; −0.5 h Glucose ([2]; Table 4, naive (tumor-free) BALB/c nude mice, no pretreatment): 5.7 ± 0.9 mM; 2 h Glucose ([2]; Table 4, naive (tumor-free) BALB/c nude mice, 2 h after MK2206 150 mg/kg): 5.8 ± 0.5 mM; 2 h Glucose ([2]; Table 5 (insulin table), MiaPaCa2 tumor bearing BALB/c nude mice, 2 h after MK2206 150 mg/kg p.o.): 26.2 ± 19.4 mM; 4 h Insulin ([2]; Table 5, MiaPaCa2 tumor bearing BALB/c nude mice, 4 h after MK2206 150 mg/kg p.o.): 7.1 ± 2.1 ng/mL; 2 h Glucose [1]: 20.1 ± 0.8 mM; 4 h Glucose [1]: 9.6 ± 1.3 mM; efficacy in Phase I/II clinical trials [3]: minimal; hyperglycemia and hyperinsulinemia in Phase I/II clinical trials [3]: consistently observed

Q: For `Cc1c(CN2CCN(C(=O)[C@H](C)O)CC2)sc2c(N3CCOCC3)nc(-c3cnc(N)nc3)nc12` [GDC-0980, apitolisib], which “2 h Glucose” value [1] is on record?
A: 27.0 ± 1.8 mM

Q: And the “4 h Glucose” value [1]?
A: 20.5 ± 0.9 mM

Q: For `Cc1nc(NC(=O)N2CCC[C@H]2C(N)=O)sc1-c1ccnc(C(C)(C)C(F)(F)F)c1` [BYL719, alpelisib], which “2 h Glucose” value [1] is on record?
A: 17.4 ± 1.4 mM

Q: What about the “4 h Glucose” value [1] of the same compound?
A: 11.9 ± 3.3 mM

Q: What about the “efficacy in Phase I/II clinical trials” value [3] of the same compound?
A: minimal

Q: What about the “hyperglycemia and hyperinsulinemia in Phase I/II clinical trials” value [3] of the same compound?
A: consistently observed

Q: What about the IC50 [4] of the same compound?
A: 9.1 µM

Q: And the IC50 [5]?
A: 9.1 µM

Q: And the IC50 [6]?
A: 15 µM

Q: And the IC50 [7]?
A: 9.1 µM

Q: And the IC50 [8]?
A: 0.581 µM

Q: What does the source list for “REMD-477: fully human anti-GCGR monoclonal antibody, heavy chain SEQ ID NO: 49 and light chain SEQ ID NO: 50”?
A: amount of insulin needed [9]: substantially reduce; glucose levels [9]: improve; hypoglycemia (low blood glucose levels) [9]: without increasing

Q: For `CC(C)NC[C@@H](C(=O)N1CCN(c2ncnc3c2[C@H](C)C[C@H]3O)CC1)c1ccc(Cl)cc1` [GDC-0068, ipatasertib], which “2 h Glucose” value [1] is on record?
A: 28.4 ± 2.0 mM

Q: And the “4 h Glucose” value [1]?
A: 25.9 ± 1.2 mM

Q: What about the IC50 [10] of the same compound?
A: 0.862 µM

Q: For `CCn1c(-c2nonc2N)nc2c(C#CC(C)(C)O)ncc(OC[C@H]3CCCNC3)c21` [GSK690693], which “2 h Glucose” value [1] is on record?
A: 27.1 ± 2.6 mM

Q: What about the “4 h Glucose” value [1] of the same compound?
A: 21.2 ± 1.5 mM

Q: What about the induction of hyperglycemia ([11]; mouse, in vivo) of the same compound?
A: potently induces

Q: With `CN(C)C(=N)N=C(N)N` [metformin] as the compound, how does the “effect on GSK690693-induced hyperglycemia” value (shortened to “effect”) [11] read?
A: not prevented or reduce

Q: For `Nc1cc(C(F)(F)F)c(-c2cc(N3CCOCC3)nc(N3CCOCC3)n2)cn1` [BKM120, buparlisib], which “2 h Glucose” value [1] is on record?
A: 15.7 ± 2.5 mM

Q: What about the “4 h Glucose” value [1] of the same compound?
A: 9.1 ± 1.3 mM

Q: And the “efficacy in Phase I/II clinical trials” value [3]?
A: minimal

Q: And the “hyperglycemia and hyperinsulinemia in Phase I/II clinical trials” value [3]?
A: consistently observed

Q: And the IC50 [6]?
A: 8.09 µM

Q: And the IC50 [12]?
A: 0.582 µM

Q: With Exendin-4 as the compound, how does the “effect” value [11] read?
A: not prevented or reduce

Q: With `N#C[C@@H]1CCCN1C(=O)CNC12CC3CC(CC(O)(C3)C1)C2` [vildagliptin] as the compound, how does the “effect” value [11] read?
A: not prevented or reduce
